For one experiment, the system named is PC-3. Briefly: In vitro proliferation assay (MTT), PC-3. The note with it: Homo sapiens, PC-3, MTT assay; value (SD, n) where given; read-out: PC-3 Prostate (IC50 µM). The format is cell-based, human. How it is done:
(§1) The proliferation of tumor cells can be measured using a tetrazolium salt-based assay known as the MTT (3-[4,5-Dimethylthiazol-2-yl]-2,5-diphenyltetrazolium bromide) assay. […] For the assay, the cell lines are plated onto 96 well plates at 1000 to 2500 cells/well (depending on the properties of the individual cell lines), left to attach and recover overnight. […] After 3 days, the cells are incubated with MTT dye (3-[4,5-Dimethylthiazol-2-yl]-2,5-diphenyltetrazolium bromide, Sigma # M5655, 10 mg/ml in Hank's Buffered Saline) to estimate the amount of live cells remaining vs. concentration for the test compounds. […] The MTT and culture medium is then removed from the cultures and 200 µl of DMSO is added to solubilize the dye from the cell layer. The absorbance at 570 nm is determined for each culture using a Spectramax plate reader (Molecular Devices).
(§2) IC50s were determined from the raw data from either the MTT or SRB assays.
(§3) All of the cell lines were obtained from American Type Tissue Collection, with the ATCC accession number in parentheticals. MCF-7 and MDA-MB-231 cells were grown in improved minimum essential medium (Biofluids) without phenol red, supplemented with 5 % fetal bovine serum, 0.01 mg/ml gentamicin and 3 mM L-glutamine.
(Tetrazolium assays rely on reduction of a dye to a coloured formazan, in cell work by metabolically active cells.)

The target in a further experiment is cdk4/cyclin D1 (Homo sapiens, UniProt P11802). The experiment is described as follows: Cyclin-dependent kinase assay, cdk4/cyclin D1. The format is biochemical. The settings on record: cyclin D1/cdk4; GST-pRb substrate, 10 µM ATP.
Sequence of cdk4/cyclin D1 (P11802 whole entry): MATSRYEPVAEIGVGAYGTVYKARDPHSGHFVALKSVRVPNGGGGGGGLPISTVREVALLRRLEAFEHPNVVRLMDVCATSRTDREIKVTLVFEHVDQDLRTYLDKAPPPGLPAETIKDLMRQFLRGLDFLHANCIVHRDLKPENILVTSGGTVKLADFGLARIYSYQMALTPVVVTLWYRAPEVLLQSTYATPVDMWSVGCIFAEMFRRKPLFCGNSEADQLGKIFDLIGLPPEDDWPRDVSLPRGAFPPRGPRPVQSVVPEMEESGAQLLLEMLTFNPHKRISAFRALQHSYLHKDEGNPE
Sequence of cdk4/cyclin D1 (P24385 whole entry partner): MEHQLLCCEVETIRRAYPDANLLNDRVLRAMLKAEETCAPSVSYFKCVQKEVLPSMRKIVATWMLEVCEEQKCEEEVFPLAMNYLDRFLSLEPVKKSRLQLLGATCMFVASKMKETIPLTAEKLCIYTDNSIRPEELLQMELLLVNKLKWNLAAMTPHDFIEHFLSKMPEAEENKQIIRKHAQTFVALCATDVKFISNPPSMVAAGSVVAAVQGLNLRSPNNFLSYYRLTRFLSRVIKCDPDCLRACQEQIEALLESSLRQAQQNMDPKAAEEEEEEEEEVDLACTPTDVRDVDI
A further experiment deals with cdk2/cyclin E (Homo sapiens, UniProt P24941). The experiment is described as follows: Cyclin-dependent kinase assay, cdk2/cyclin E. The note with it: CDK2 IC50, nM, GST-pRb substrate, 10 µM ATP.
Another experiment addresses cdk1/cyclin B (Homo sapiens, UniProt P06493). The experiment is described as follows: Cyclin-dependent kinase assay, cdk1/cyclin B. The settings on record: CDK1 IC50, nM, Histone H1, 10 µM ATP.
A further experiment concerns MDA-MB-435. Briefly: In vitro proliferation assay (MTT), MDA-MB-435. Format: cell-based, human. The note with it: Homo sapiens, MDA-MB-435, MTT assay; value (SD, n) where given; read-out: MB-435 Breast (IC50 µM). Here is the method:
as §1, §2, §3

Molecules are shown by their SMILES. Where a name gives a salt, the structure may show the parent alone.

Broadly, the IC50 is the point on the concentration scale where inhibition reaches its midpoint.

Sequence of cdk1/cyclin B (P06493 whole entry): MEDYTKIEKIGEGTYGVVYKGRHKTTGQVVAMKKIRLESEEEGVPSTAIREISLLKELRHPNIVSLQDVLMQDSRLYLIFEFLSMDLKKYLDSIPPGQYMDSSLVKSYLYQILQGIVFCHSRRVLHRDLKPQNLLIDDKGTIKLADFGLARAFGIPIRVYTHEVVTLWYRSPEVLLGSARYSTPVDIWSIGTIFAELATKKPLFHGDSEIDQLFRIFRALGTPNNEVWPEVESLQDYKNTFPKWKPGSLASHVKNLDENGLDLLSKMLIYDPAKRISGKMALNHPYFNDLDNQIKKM
Sequence of cdk1/cyclin B (P14635 whole entry partner): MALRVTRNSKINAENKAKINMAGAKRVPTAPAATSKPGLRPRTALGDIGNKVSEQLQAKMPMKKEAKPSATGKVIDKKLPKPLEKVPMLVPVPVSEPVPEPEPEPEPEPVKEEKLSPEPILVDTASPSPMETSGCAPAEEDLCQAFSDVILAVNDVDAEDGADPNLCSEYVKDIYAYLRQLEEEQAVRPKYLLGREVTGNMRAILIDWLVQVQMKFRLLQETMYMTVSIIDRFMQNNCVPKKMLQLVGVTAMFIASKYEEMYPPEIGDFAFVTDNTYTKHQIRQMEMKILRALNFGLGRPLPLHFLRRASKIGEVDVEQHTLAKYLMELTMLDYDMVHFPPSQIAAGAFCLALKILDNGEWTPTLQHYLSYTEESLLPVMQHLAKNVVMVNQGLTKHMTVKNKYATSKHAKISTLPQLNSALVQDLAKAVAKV

`N[C@H]1CC[C@H](Nc2nc(NC3CCN(C(=O)C(c4ccccc4)c4ccccc4)CC3)c3ncn(C4CCCC4)c3n2)CC1` [compound 40, trans-1-{4-[2-(4-Amino-cyclohexylamino)-9-cyclopentyl-9H-purin-6-ylamino]-piperidin-1-yl}-2,2-diphenyl-ethanone dihydrochloride]: the IC50 in the experiment with PC-3 came to 0.27 µM; against cdk4/cyclin D1 it was 238 nM; against cdk2/cyclin E, 61 nM; on cdk1/cyclin B, 36 nM; in the experiment with MDA-MB-435, 0.22 µM.
For `COc1ccc(CC(=O)N2CCC(Nc3nc(N[C@H]4CC[C@H](N)CC4)nc4c3ncn4C3CCCC3)CC2)cc1` [compound 42, trans-1-{4-[2-(4-Amino-cyclohexylamino)-9-cyclopentyl-9H-purin-6-ylamino]-piperidin-1-yl}-2-(4-methoxy-phenyl)-ethanone dihydrochloride], in that order: 1.06 µM, 103 nM, 51 nM, 21 nM and 1.1 µM.
Consider `C[C@H](O)C(=O)N1CCC(Nc2nc(N[C@H]3CC[C@H](N)CC3)nc3c2ncn3C2CCCC2)CC1` [compound 47, trans-(S)-1-{4-[2-(4-Amino-cyclohexylamino)-9-cyclopentyl-9H-purin-6-ylamino]-piperidin-1-yl}-2-hydroxy-propan-1-one dihydrochloride], for which the concentration for half-maximal inhibition (IC50) was 1.8 µM with PC-3; 361 nM against cdk4/cyclin D1; 14 nM against cdk2/cyclin E; 36 nM against cdk1/cyclin B; 1.99 µM with MDA-MB-435.
As for `N[C@H]1CC[C@H](Nc2nc(NC3CCN(C(=O)Cc4ccc(F)cc4)CC3)c3ncn(C4CCCC4)c3n2)CC1` [compound 48, trans-1-{4-[2-(4-Amino-cyclohexylamino)-9-cyclopentyl-9H-purin-6-ylamino]-piperidin-1-yl}-2-(4-fluoro-phenyl)-ethanone dihydrochloride], the IC50 turned out to be 0.84 µM in the experiment with PC-3; 503 nM on cdk4/cyclin D1; 61 nM on cdk2/cyclin E; 48 nM against cdk1/cyclin B; 0.75 µM in the experiment with MDA-MB-435.
The corresponding values for `C=CCCC(=O)N1CCC(Nc2nc(N[C@H]3CC[C@H](N)CC3)nc3c2ncn3C2CCCC2)CC1` [compound 49, trans-1-{4-[2-(4-Amino-cyclohexylamino)-9-cyclopentyl-9H-purin-6-ylamino]-piperidin-1-yl}-pent-4-en-1-one dihydrochloride] are 0.92 µM, 88 nM, 49 nM, 121 nM and 1.23 µM.
`CC(C)(C)CC(=O)N1CCC(Nc2nc(N[C@H]3CC[C@H](N)CC3)nc3c2ncn3C2CCCC2)CC1` [compound 51, trans-1-{4-[2-(4-Amino-cyclohexylamino)-9-cyclopentyl-9H-purin-6-ylamino]-piperidin-1-yl}-3,3-dimethyl-butan-1-one dihydrochloride]: the IC50 amounted to 0.5 µM with PC-3; 99 nM against cdk4/cyclin D1; 65 nM on cdk2/cyclin E; 109 nM against cdk1/cyclin B; 0.42 µM in the experiment on MDA-MB-435.
The corresponding values for `N[C@H]1CC[C@H](Nc2nc(NC3CCN(C(=O)Cc4ccccc4)CC3)c3ncn(C4CCCC4)c3n2)CC1` [compound 52, trans-1-{4-[2-(4-Amino-cyclohexylamino)-9-cyclopentyl-9H-purin-6-ylamino]-piperidin-1-yl}-2-phenyl-ethanone dihydrochloride] are 0.69 µM, 350 nM, 59 nM, 40 nM and 0.87 µM.
For `CCC(=O)N1CCC(Nc2nc(N[C@H]3CC[C@H](N)CC3)nc3c2ncn3C2CCCC2)CC1` [compound 53, trans-1-{4-[2-(4-Amino-cyclohexylamino)-9-cyclopentyl-9H-purin-6-ylamino]-piperidin-1-yl}-propan-1-one dihydrochloride], in that order: 0.88 µM, 934 nM, 80 nM, 40 nM and 1.17 µM.
